“Also recorded” adds a separate entry of the source. Bounds are passed on as bounds.

The subject of data set [1] is rat aortic rings. In words: Contractile response of rat aortic rings to phenylephrine. Conditions: 24 h; for contractile response to phenylephrine of rings incubated with corticosterone and antisense: corticosterone 10 nmol/L + antisense 3 μmol/L, compared with nonsense oligomers; for effect on the ability of 11-dehydro-corticosterone to amplify the contractile response to phenylephrine: 11-dehydro-corticosterone 100 nmol/L, antisense 3 μmol/L vs nonsense. The format is cell-based. As for the experimental part: Male Sprague-Dawley (150-200 g) rats were anesthetized with pentobarbital (50 mg/kg IP), and a median sternotomy was performed followed by the rapid removal of the thoracic aorta. The adventitia was removed, but the endothelium was left intact. The aorta was cut into 2-3 mm rings and individual rings were placed into a single well of a twenty four well culture plate and incubated at 37° C. under 95% 02-5% CO2. Each well contained 1 mL of DMEM/F12 containing 1% fetal bovine serum, streptomycin (100 μg/ml), penicillin (100 units/ml) and amphotericin (0.25 μg/ml). Aortic rings were incubated for 24 hours prior to contractility measurements with the following combinations of steroids, and antisense/nonsense oligonucleotides (3 μmol/L):
Antisense phosphorothioate oligonucleotides, targeted to block either 11β-HSD2 or 11β-HSD1 gene expression, were obtained from Research Genetics, Huntsville Ala. Antisense oligomers complementary to 20 bp sequences spanning the ribosome binding/translation start site were used. Oligomer sequences were: 5′-CATAACTGCCGTCCAACAGC-3′ (SEQ ID NO. 1) for 11β-HSD1 Antisense and 5′-AGGCCAGCGCTCCATGACTT-3′ (SEQ ID NO 2) for 11β-HSD2 antisense. In control experiments the corresponding sense sequence was used as the nonsense oligomer. Antisense and nonsense oligomers were added directly to each well at 20 μg/10:1 sterile H2O per well for a final concentration of 3 μmol/L.
For contraction measurements, aortic rings were suspended by tungsten wires with 1 g of tension and placed in a vessel bath containing serum free DMEM/F12 media at 37° C. aerated with 95% O2-5% CO2, at pH 7.4. Vessels were equilibrated for 20 minutes and then tested with phenylephrine (1 nmol/L-10 μmol/L). Although phenylephrine is structurally not a catecholamine, it is considered to be a functional catecholamine as it activates both a and P adrenoceptors. Due to its favorable stability characteristics, it is widely used as a catecholamine substitute in experiments of this nature. The intensity of contraction was assessed by use of a Narishige micromanipulator and model FT03 force transducer (Grass Instrument Co. West Warwick, R.I.). Measurements were recorded on computer using the Labview 4.1 Virtual Instrument System (National Instruments, Austin, Tex.).

Data set [2] deals with rat aortic rings. In words: Conversion of 3H-corticosterone to 11-dehydrocorticosterone by aortic rings. Conditions: 3H-corticosterone 10 nM, antisense 3 μM, 24 hrs, compared with nonsense oligomers. The format is cell-based. As for the experimental part: (§1) The effects of 11β-HSD1 and 11β-HSD2 antisense on the inter-conversion of ^3H-corticosterone and ^3H-11-dehydro-corticosterone by aortic rings was also determined. Rings (2-3 mm) obtained in a similar manner as those in the contraction studies, were incubated in 1 ml DMEM/F12 media containing 1% FBS at 37° C. under 95% O2-5% CO2 in 24-well culture plates. Rings were incubated for 24 hours with:
(i) ^3H-corticosterone (10 nmol/L)±11β-HSD2 or 11β-HSD1 antisense (3 μmol/L); control groups received nonsense oligomers. The amount of ^3H-11-dehydro-corticqsterone in the incubation medium after 24 hrs was then measured. The effects of 11β-HSD1 antisense/nonsense were measured in quadruplicate (n=6 aortic rings per well) and the effects of 11β-HSD2 antisense/nonsense in duplicate (n=8 aortic rings per well),
Incubation media was collected, ran through a Sep-Pak and eluted with 3 mls of methanol, the eluate was then dried under nitrogen and reconstituted in 500:1 methanol. The aortic rings were dried and weighed. The steroids present in the eluate were separated by high-pressure liquid chromatography with a Dupont Zorbax C8 column eluted at 44° C. at a flow rate of 1 mL/min using 55% methanol for 10 minutes. Steroids were observed by monitoring radioactivity on-line with a Packard Radiomatic Flo-One/Beta Series A-500 counter connected to a Dell Optiflex 425 S/L computer. […]

In data set [3] the test system is cultured rat vascular endothelial and smooth muscle cells. In words: RT-PCR analysis of 11β-HSD isoform expression in cultured cells. The conditions noted are these: similar protocol. Type of data set: cell-based. An excerpt: Since 11β-HSD2 appears to exist only in endothelial cells, this observation supports a role for the action of glucocorticoids in affecting endothelial cell function. […] Further experiments to determine whether antisense oligomers down-regulate mRNA and protein expression of their respective 11β-HSD isoform under conditions in which they enhance contractile responses in aortic rings will be done.

Data set [4] addresses T1, 11β-HSD1-reductase activity (Rattus norvegicus, UniProt P16232).
T1 construct: from tissue; host or cells: rat aortic rings (intact tissue, 24 h incubation)
In words: Metabolism of 3H-11-dehydrocorticosterone back to corticosterone by aortic rings. Type of data set: cell-based. Conditions: 24 hours, compared with nonsense oligomers. Here is the method: as §1
(ii) ^3H-11β-dehydro-corticosterone (10 nmol/L)±11β-HSD1 antisense (3 μmol/L); this experiment was performed in duplicate (n=10 aortic rings per well). Control groups were incubated with the appropriate nonsense oligomer. ^3H-corticosterone in the incubation medium after 24 hrs was then measured. In this experiment, aortic rings were also analyzed for ^3H-corticosterone content. Rings from duplicate incubations (total n=20) were blotted dry, pooled and homogenized in 50% methanol using a Polytron. The homogenates were then centrifuged, extracted as below using Sep-Paks and injected onto a HPLC system for analysis.
Incubation media was collected, ran through a Sep-Pak and eluted with 3 mls of methanol, the eluate was then dried under nitrogen and reconstituted in 500:1 methanol. The aortic rings were dried and weighed. […] Steroids were observed by monitoring radioactivity on-line with a Packard Radiomatic Flo-One/Beta Series A-500 counter connected to a Dell Optiflex 425 S/L computer. […]

The target of data set [5] is T2, 11β-HSD2 (Ovis aries, UniProt P50168).
T2 construct: incubating sheep kidney microsomal fraction (6.5 μg protein) with 50 nM corticosterone; from tissue; host or cells: sheep kidney microsomal fraction
T2 sequence (P50168 1-427): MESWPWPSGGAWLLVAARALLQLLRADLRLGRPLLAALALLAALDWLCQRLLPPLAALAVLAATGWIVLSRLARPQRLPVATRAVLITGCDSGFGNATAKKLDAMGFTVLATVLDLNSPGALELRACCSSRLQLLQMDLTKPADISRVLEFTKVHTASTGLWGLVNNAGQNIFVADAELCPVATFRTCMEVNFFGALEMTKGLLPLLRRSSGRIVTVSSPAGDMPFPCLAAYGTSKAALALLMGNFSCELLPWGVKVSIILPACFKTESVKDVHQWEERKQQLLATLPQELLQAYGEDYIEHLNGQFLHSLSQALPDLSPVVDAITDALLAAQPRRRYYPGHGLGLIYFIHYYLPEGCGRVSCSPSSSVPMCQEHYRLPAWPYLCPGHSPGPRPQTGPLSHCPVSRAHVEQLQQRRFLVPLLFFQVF
Description: 11β-HSD2 enzyme activity in sheep kidney microsomes. Type of data set: biochemical. An excerpt: The enzymatic reaction was termninated by addition of methanol and synthesis of 11-dehydro-corticosterone was quantitated by HPLC as described above.

In data set [6] the target is T3, 11β-HSD1 Reductase (Rattus norvegicus, UniProt P16232). Description: Table 1: inhibition of 11β-HSD1 reductase. The format is biochemical. Conditions: Table 1, inhibition in words.
Data set [7] has as its target T4, 11β-HSD1 Dehydrogenase (Rattus norvegicus, UniProt P16232). In words: Table 1: inhibition of 11β-HSD1 dehydrogenase. Type of data set: biochemical. Conditions: Table 1, inhibition in words.
In a further data set the target is T5, 11β-HSD2 Dehydrogenase (Ovis aries, UniProt P50168).
T5 sequence (P50168 1-427): T2 sequence (P50168 1-427)
Description: Table 1: inhibition of 11β-HSD2 dehydrogenase. Conditions: Table 1, inhibition in words. Type of data set: biochemical.

Data set [8] has as its target T3, 11β-HSD1 Reductase. Description: 11β-HSD1 reductase assay in rat Leydig cell homogenates.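 As to all read-outs here: rat Leydig cell homogenate incubated 20 min at 37 °C, pH 7.4, with tritiated 11-dehydro-corticosterone and 3 mM NADPH, product measured by HPLC, inhibition from triplicate dose–response curves.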 Conditions: for inhibitors of 11β-HSD1 reductase (summary in words): summary of the screening.
Data set [9] addresses T4, 11β-HSD1 Dehydrogenase. In words: 11β-HSD1 dehydrogenase assay in rat Leydig cell homogenates.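 As to all read-outs here: tritiated corticosterone conversion by 11β-HSD1 dehydrogenase in Leydig homogenates with 3 mM NADP at pH 8.4, 37 °C for 10 min, products resolved by HPLC, inhibition relative to uninhibited enzyme.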 Type of data set: biochemical. On the set-up: Freshly prepared rat Leydig cell homogenates were chosen since they provide a rich and reliable source of both 11β-HSD1 dehydrogenase and reductase; from tissue; host or cells: rat testicular Leydig cells, homogenate. The conditions noted are these: for Leydig Cell 11β-HSDl Dehydrogenase [S] = 600 nM: rat Leydig cell homogenates, 600 nM corticosterone, progesterone and androgen derivatives.
Description: Each enzyme reaction (described below) was stopped by adding 750 μL MeOH. After centrifugation, an aliquot of supernatant was analyzed by HPLC using a DuPont Zorbax C8 column.
11β-HSD1 dehydrogenase was assayed by incubating homogenates (13,000 cells equivalent) with 600 nM [^3H]-B (0.5 μCi) in the presence of 3 mM NADP, 50 mM Tris-HCl; pH 8.4 at 37° C. for 10 minutes in a total volume of 250 μL. 11β-HSD1 reductase was assayed by incubating homogenates (52,000 cells equivalent) with 600 nM [^3H]-11-dehydro-corticosterone in presence of 3 mM NADPH, 50 mM Tris-HCl; pH 7.4 at 37° C. for 20 minutes in a total volume of 250 μL.
Each concentration was tested in triplicate and the dose response curve, showing percentage inhibition versus log concentration of steroid was plotted. The data fitted a log-linear straight line.

A further data set concerns the target 11β-HSD1 (Homo sapiens, UniProt P28845). Conditions: Monder et al., 1993; Pearson Murphy et al., 1981; cited from earlier work.
Data set [10] deals with T6, 11β-HSD2 (Homo sapiens, UniProt P80365).
T6 sequence (P80365 1-405): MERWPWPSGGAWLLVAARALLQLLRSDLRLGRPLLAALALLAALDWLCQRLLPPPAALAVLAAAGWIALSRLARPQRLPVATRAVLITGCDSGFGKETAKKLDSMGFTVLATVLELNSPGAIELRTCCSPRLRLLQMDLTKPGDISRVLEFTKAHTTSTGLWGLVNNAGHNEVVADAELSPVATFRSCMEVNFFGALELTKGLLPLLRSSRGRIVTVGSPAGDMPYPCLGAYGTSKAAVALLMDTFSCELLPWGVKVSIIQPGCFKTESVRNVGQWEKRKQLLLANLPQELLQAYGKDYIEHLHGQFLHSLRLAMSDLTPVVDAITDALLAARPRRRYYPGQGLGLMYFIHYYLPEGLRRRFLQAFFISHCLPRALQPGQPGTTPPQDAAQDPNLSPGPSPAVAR
Conditions: Monder et al., 1993; Pearson Murphy et al., 1981; cited from earlier work.

Setting [11] is: listed as 11β-HSD1 antisense oligomers.

T3 sequence (P16232 whole entry): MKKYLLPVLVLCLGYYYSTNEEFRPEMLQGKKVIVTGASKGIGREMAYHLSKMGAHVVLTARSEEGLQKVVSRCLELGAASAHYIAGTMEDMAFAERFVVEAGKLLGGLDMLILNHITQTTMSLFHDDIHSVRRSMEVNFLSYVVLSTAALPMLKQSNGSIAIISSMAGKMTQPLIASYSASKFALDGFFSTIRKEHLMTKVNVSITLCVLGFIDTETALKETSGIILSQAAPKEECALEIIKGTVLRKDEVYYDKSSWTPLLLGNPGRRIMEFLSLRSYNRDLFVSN
T4 sequence (P16232 whole entry): as above
T1 sequence (P16232 whole entry): as above
Sequence of 11β-HSD1 (P28845 whole entry, species assumed): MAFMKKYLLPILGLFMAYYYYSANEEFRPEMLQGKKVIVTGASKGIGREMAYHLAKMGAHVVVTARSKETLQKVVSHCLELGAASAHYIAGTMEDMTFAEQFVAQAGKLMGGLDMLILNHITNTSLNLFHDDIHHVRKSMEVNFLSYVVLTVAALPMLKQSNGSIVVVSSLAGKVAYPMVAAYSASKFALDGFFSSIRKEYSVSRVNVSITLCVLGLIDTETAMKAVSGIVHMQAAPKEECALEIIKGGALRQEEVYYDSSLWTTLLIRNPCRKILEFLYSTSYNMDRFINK

For the compound “5′-AGGCCAGCGCTCCATGACTT-3′ (antisense AGGCCAGCGCTCCATGACTT; all phosphorothioate, sugars by position and methylation of C not given here) [11β-HSD2 antisense]”, the “contractile response to phenylephrine of rings incubated with corticosterone and antisense” value in the data set with rat aortic rings [1] was “statistically significant increase; also recorded: significantly (P<0.05) increased”. For the same compound, the “reduction in the conversion of corticosterone to 11-dehydrocorticosterone” value in the data set with rat aortic rings [2] worked out at 24%. Also, in data set [3], the “expression of the respective 11β-HSD enzyme isoform” value is “down-regulate the expression”.
Regarding “5′-CATAACTGCCGTCCAACAGC-3′ (antisense CATAACTGCCGTCCAACAGC; all phosphorothioate, sugars by position and methylation of C not given here) [11β-HSD1 antisense]”, the “effect on the ability of 11-dehydro-corticosterone to amplify the contractile response to phenylephrine” value is “significantly attenuated” with rat aortic rings [1], “attenuates” with rat aortic rings [1] (listed as 11β-HSD1 antisense oligomer) and “attenuated” in the data set on rat aortic rings [1] (setting [11]). Further, the entries for the “contractile response to phenylephrine of rings incubated with corticosterone and antisense” value in the data set with rat aortic rings [1] and with rat aortic rings [1] (setting [11]) were “significantly increased” and “enhanced the ability of corticosterone to amplify the contractile response”, respectively. For the same compound, the “reduction in the conversion of corticosterone to 11-dehydrocorticosterone” value in the data set with rat aortic rings [2] is 21%. Besides, the “production of 3H-corticosterone from 3H-11-dehydrocorticosterone” value in [4] is listed as “significantly reduce; also recorded: markedly reduced; also recorded: marked decrease”. Besides, in data set [3], the “expression of the respective 11β-HSD enzyme isoform” value is on record as “down-regulate the expression”.
On to `CC(=O)[C@H]1CC[C@@H]2[C@@H]3CCC4=CC(=O)CC[C@]4(C)[C@@H]3C(=O)C[C@]12C` (stereo in doubt) [11 -Keto-Progesterone, 4-Pregnen-3,11,20-trione], for which the half-maximal inhibitory concentration (IC50) was 0.4 µM on 11β-HSD2 [5], 9.5 µM against 11β-HSD1 Reductase [8] and > 100 µM against 11β-HSD1 Dehydrogenase [9]. Further, the “inhibitors of 11β-HSD2 (summary in words)” value on 11β-HSD2 [5] (summary of the screening, listed as 11-keto-progesterone) is reported as “potent inhibitors; also recorded: high potency”. Besides, the “11β-HSD1 Reductase” value on 11β-HSD1 Reductase [6] was “Selective Inhibitor”. On 11β-HSD1 Dehydrogenase [7], the “11β-HSD1 Dehydrogenase” value is recorded as “No Inhibition”. In addition, the “11β-HSD2 Dehydrogenase” value at 11β-HSD2 Dehydrogenase was “Potent Inhibitor”. In the data set with rat aortic rings [1], the “effect on the ability of 11-dehydro-corticosterone to amplify the contractile response to phenylephrine” value is given as “diminished”. Besides, in data set [4], the “production of 3H-corticosterone from 3H-11-dehydrocorticosterone” value is listed as “decreased the metabolism”. The “inhibitors of 11β-HSD1 reductase (summary in words)” value on 11β-HSD1 Reductase [8] (listed as 11-Keto-Progesterone) is “potent inhibitors”; at 11β-HSD1 Reductase [8] (listed as 11-keto-progesterone) it was “high potency”. Further, the “Leydig Cell 11β-HSDl Dehydrogenase [S] = 600 nM” value on 11β-HSD1 Dehydrogenase [9] was “inactive”.
Regarding `C[C@]12CCC(=O)C=C1CC[C@@H]1[C@@H]2[C@@H](O)C[C@]2(C)C(=O)CC[C@@H]12` [11β-OH-Androstenedione, 4-Androsten-11β-ol-3,17-dione], the results for the concentration for half-maximal inhibition (IC50) at 11β-HSD2 [5], on 11β-HSD1 Reductase [8] and against 11β-HSD1 Dehydrogenase [9] were 7.8 µM, > 100 µM and > 100 µM, respectively. For the same compound, the “Sheep kidney 11β-HSD2 [S] = 50 nM” value at 11β-HSD2 [5] (sheep kidney microsomes, corticosterone substrate, progesterone and androgen derivatives) was “weak inhibitor”. Further, the “inhibition of 11β-HSD1 isoform” value on 11β-HSD1 was “poor inhibitor”. Moreover, on 11β-HSD2 [10], the “inhibition of 11β-HSD2 isoform” value was “poor inhibitor”. The “Leydig Cell 11β-HSDl Dehydrogenase [S] = 600 nM” value at 11β-HSD1 Dehydrogenase [9] is “inactive”.

The record behind these values is US20070093460A1, “Methods of using selective 11beta-HSD inhibitors to treat gluocorticoid associated states” (priority 2005, published 2007).
